Among the data in EP1420018A1, “Pyrido[1,2-a]benzimidazole derivatives useful in treating central nervous system disorders” (Ortho-McNeil Pharmaceutical, Inc., priority 1996, dated 1998) are minimal effective dose, ED50 and IC50 values, retold here.

By ED50 is commonly meant the dose at which the effect has come halfway, by size or by number of responders. For orientation: IC50 means the concentration at which inhibition is half-maximal.

Assay [1] concerns Anxiety in the Adult Male Rat. Briefly: Suppression of Anxiety in the Adult Male Rat (rat conflict test). In kind it is in vivo, rats. Conditions: Rattus norvegicus. As to the method:
Assay to Measure the Suppression of Anxiety in the Adult Male Rat
Male rats were deprived of water for 48 hours and were deprived of food for 24 hours prior to testing. After the first 24 hours of water deprivation, they were placed in the conflict chamber for a training period; wherein, they were allowed 200 unpunished licks from a bottle containing tap water. The experiment was run the next day. At the expected time of peak activity, the animals were placed in the chamber and allowed access to tap water. […] Their first lick initiates a 3-min test session. Subsequently, every 20th lick was punished by a 0.2-s shock delivered via the stainless-steel drinking-tube.
The Wilcoxon rank-sum test (Mann-Whitney U-test) was used to test for an increase (p<0.05, 1-tailed) in the median number of shocks in drug-treated groups, compared to a concurrently run vehicle-treated group. The biological assay is considered to be valid if the effects of a known anxiolytic (positive control) are detected, within the same experiment.

Assay [2] relates to metrazol-induced convulsions. Briefly: Suppression of Metrazol-Induced Convulsions in Adult Male Mice. Particulars: Mus musculus, po. In kind it is in vivo.
In assay [3] the target is benzodiazepine site of the GABA-A receptor. Briefly: Benzodiazepine Receptor Binding Assay (inhibition of 3H-flunitrazepam binding). Conditions: read-out: GABAA Receptor Binding IC50.
The subject of assay [4] is metrazol-induced convulsions. Kind of assay: Suppression of Metrazol-Induced Convulsions in Adult Male Mice. In kind it is in vivo. Particulars: Mus musculus, ip. As to the method:
Assay to Determine the Suppression of Metrazol-Induced Convulsions in Adult Male Mice
Male CD1 mice, were fasted at least 16 hours, were divided into equal groups and test compounds or vehicle were administered parenterally. Water was not withheld except during the period of observations. […] Metrazol was dissolved in 0.9% sodium chloride solution, and its dose volume was 10 ml/kg. Animals were housed individually for observation of clonic convulsions, tonic convulsions and death for a period of 30 min. […] The biological assay was considered to be valid if the effects of a known anticonvulsant (positive control) were detected, within the same experiment. Activity was reported as percent reduction of clonic convulsions from the vehicle group.

The mark [5] stands for this setting: po, rat, po, read-out: Rat Conflict (MED, mg/kg) po.
Where [6] appears, read: ip, rat, ip, read-out: Rat Conflict (MED, mg/kg) ip.
Where [7] appears, read: po, minimum effective dose, increase in shocks tolerated, >10 = active dose not determined, read-out: Rat Conflict (MED, mg/kg) po.
Where [8] appears, read: block of clonic convulsions, male CD1 mice, >30 = active dose not determined.
[9] abbreviates: inhibition of 3H-flunitrazepam (ca. 3 nM) binding to membranes, 25°C, over 10,000 = not active.

Like-named read-outs stand apart in the source and are kept apart here. A value given as a limit tells only on which side of the number the result lay.

As to `CCOCN1C2=C(C(=O)Nc3ccccc3F)C(=O)CCN2c2ccc(Cl)cc21` [Compound 157], the minimal effective dose in assay [1] (setting [5]) is greater than 10 mg/kg. Besides, the values for the ED50 in assay [2] (mouse) and in assay [4] (mouse) were roughly 2 mg/kg and less than 1 mg/kg, respectively. Besides, the IC50 in assay [3] is 0.48 nM.

Take `COCCN1C2=C(C(=O)Nc3ncc(C)s3)C(=O)CCN2c2ccccc21` [Compound 98]: the minimal effective dose in assay [1] (setting [5]) was 3 mg/kg. The IC50 in assay [3] was 11 nM.

On to `O=C1CCN2C(=C1C(=O)Nc1c(F)cccc1F)N(CCN(Cc1ccccc1)Cc1ccccc1)c1cc(F)ccc12` [Compound 63, 7-Fluoro-1,2-dihydro-5-[N,N-di(benzyl)-2-aminoethyl]-3-oxo-N-(2,6-difluorophenyl)pyrido[1,2-a]benzimidazole-4-carboxamide], for which the minimal effective dose in assay [1] (setting [6]) was greater than 10 mg/kg. Further, the IC50 in assay [3] amounted to 15.5 nM.

`CCOCN1C2=C(C(=O)Nc3ccsc3)C(=O)CCN2c2ccc(F)cc21` [Compound 124]: the minimal effective dose in assay [1] (setting [5]) is roughly 0.3 mg/kg. For the same molecule, the ED50 was roughly 0.2 mg/kg in assay [2] (mouse) and less than 1 mg/kg in assay [4] (mouse). The IC50 in assay [3] was 0.98 nM.

Consider `CCOCCN1C2=C(C(=O)Nc3sccc3Cl)C(=O)CCN2c2ccc(F)cc21` [Compound 125], for which the minimal effective dose in assay [1] (setting [5]) is greater than 10 mg/kg. For the same molecule, the ED50 in assay [2] (mouse) is greater than 30 mg/kg; in assay [4] (mouse), less than 1 mg/kg. For the same molecule, in assay [3], the IC50 came out at 0.89 nM.

In the case of `O=C(Nc1c(F)cccc1F)OCCN1C2=C(C(=O)Nc3c(F)cccc3F)C(=O)CCN2c2ccc(F)cc21` [Compound 179], the minimal effective dose in assay [1] (setting [6]) is greater than 10 mg/kg. In addition, the figures for the ED50 in assay [2] (mouse) and in assay [4] (mouse) were greater than 30 mg/kg and 10 mg/kg, respectively. For the same molecule, the IC50 in assay [3] was found to be 7.65 nM.

As to `O=C1CCN2C(=C1C(=O)Nc1ccccc1F)N(CCNS(=O)(=O)c1ccc(C(F)(F)F)cc1)c1cc(F)ccc12` [Compound 39], the minimal effective dose in assay [1] (setting [7]) was greater than 10 mg/kg. Also, the ED50 in assay [2] (setting [8]) is greater than 3 mg/kg; in assay [4] (setting [8]), greater than 1 mg/kg. Further, the IC50 in assay [3] (setting [9]) was found to be 122 nM.

As for `O=C(CN1C2=C(C(=O)Nc3c(F)cccc3F)C(=O)CCN2c2ccc(F)cc21)Nc1ccccc1F` [Compound 60], the ED50 is greater than 30 mg/kg in assay [2] (mouse) and 10 mg/kg in assay [4] (mouse). In assay [3], the IC50 amounted to 21.4 nM.

As to `COCCN1C2=C(C(=O)Nc3ccccc3F)C(=O)CCN2c2c(OCc3ccccc3)cccc21` [Compound 109], in assay [1] (setting [5]), the minimal effective dose was greater than 10 mg/kg. For the same molecule, the IC50 in assay [3] is greater than 1000 nM.

In the case of `CCOCCN1C2=C(C(=O)Nc3cc4ccccc4s3)C(=O)CCN2c2ccc(F)cc21` [Compound 117], the ED50 in assay [2] (mouse) was greater than 30 mg/kg; in assay [4] (mouse) it was no more than 1 mg/kg. Besides, in assay [3], the IC50 worked out at 106 nM.

On to `CCOCN1C2=C(C(=O)Nc3ccccc3F)C(=O)CCN2c2cc(F)cc(F)c21` [Compound 112], for which, in assay [1] (setting [5]), the minimal effective dose is greater than 10 mg/kg. Besides, the IC50 in assay [3] came out at 13.3 nM.

In the case of `CCOCN1C2=C(C(=O)Nc3ccc(F)cc3F)C(=O)CCN2c2cc(F)cc(F)c21` [Compound 113], the minimal effective dose in assay [1] (setting [5]) is greater than 10 mg/kg. In assay [3], the IC50 amounted to 44.3 nM.

As to `Cc1ccc(NC(=O)C2=C3N(CCNS(=O)(=O)C(F)(F)F)c4cc(F)ccc4N3CCC2=O)s1` [Compound 35], in assay [1] (setting [7]), the minimal effective dose is greater than 10 mg/kg. The concentration for half-maximal inhibition (IC50) in assay [3] (setting [9]) is 46.9 nM.

For `CCOCN1C2=C(C(=O)Nc3ccc(OCc4ccccc4)cc3F)C(=O)CCN2c2ccc(F)cc21` [Compound 92], in assay [1] (setting [5]), the minimal effective dose is greater than 3 mg/kg. For the same molecule, in assay [3], the IC50 turned out to be 3.33 nM.

As for `CN=C(NCCN1C2=C(C(=O)Nc3ccccc3F)C(=O)CCN2c2ccc(F)cc21)N1CCCC1` [Compound 33], the minimal effective dose in assay [1] (setting [7]) is greater than 3 mg/kg. In addition, the IC50 in assay [3] (setting [9]) worked out at 54 nM.

`CCOCCN1C2=C(C(=O)Nc3ccc(Cl)s3)C(=O)CCN2c2ccc(F)cc21` [Compound 132]: in assay [1] (setting [5]), the minimal effective dose is greater than 3 mg/kg. In addition, the IC50 in assay [3] was determined as 3.13 nM.

`O=C(CN1C2=C(C(=O)Nc3ccccc3F)C(=O)CCN2c2ccc(F)cc21)NCCc1c[nH]cn1` [Compound 32]: the minimal effective dose in assay [1] (setting [7]) is greater than 3 mg/kg. The IC50 in assay [3] (setting [9]) turned out to be 3.56 nM.

Regarding `CCOCN1C2=C(C(=O)Nc3cc4ccccc4s3)C(=O)CCN2c2ccc(F)cc21` [Compound 115], the ED50 in assay [2] (mouse) was greater than 30 mg/kg; in assay [4] (mouse) it was greater than 1 mg/kg. For the same molecule, the IC50 in assay [3] turned out to be 53.5 nM.

For the molecule `CCOCN1C2=C(C(=O)Nc3ccc(OC)cc3F)C(=O)CCN2c2ccc(F)cc21` [Compound 97, 7-Fluoro-1,2-dihydro-5-ethoxymethyl-3-oxo-N-(2-fluoro-4-methoxyphenyl)pyrido[1,2-a]benzimidazole-4-carboxamide], the minimal effective dose is no more than 0.1 mg/kg in assay [1] (setting [6]) and 0.03 mg/kg in assay [1] (setting [5]). The ED50 in assay [2] (mouse) was no more than 0.3 mg/kg. In addition, in assay [3], the IC50 stood at 0.41 nM.

As to `COc1cccc2c1N(CCN(C)C)C1=C(C(=O)Nc3nccs3)C(=O)CCN12` [Compound 34], in assay [1] (setting [7]), the minimal effective dose is greater than 3 mg/kg. Also, in assay [3] (setting [9]), the IC50 was 1000 nM.

Take `CCOCN1C2=C(C(=O)Nc3ccc(C)s3)C(=O)CCN2c2ccc(F)cc21` [Compound 133]: in assay [1] (setting [5]), the minimal effective dose was greater than 3 mg/kg. Moreover, in assay [3], the IC50 came out at 0.68 nM.

As for `O=C1CCN2C(=C1C(=O)Nc1ccccc1F)N(CCO)c1c(O)cccc12` [Compound 94, 6-Hydroxy-1,2-dihydro-5-(2-hydroxyethyl)-3-oxo-N-(2-fluorophenyl)pyrido[1,2-a]benzimidazole-4-carboxamide], the minimal effective dose in assay [1] (setting [5]) was greater than 10 mg/kg. In addition, the IC50 in assay [3] is 2.38 nM.

`CCOCN1C2=C(C(=O)Nc3ccc(OCCOC)cc3F)C(=O)CCN2c2ccc(F)cc21` [Compound 93]: the minimal effective dose in assay [1] (setting [5]) is no more than 0.3 mg/kg. Further, in assay [3], the IC50 came out at 1.8 nM.

With `O=C1CCN2C(=C1C(=O)Nc1ccccc1F)N(CC(O)CO)c1cc(F)ccc12` (stereo not shown) [Compound 162, 7-Fluoro-1,2-dihydro-5-[2,3-dihydroxypropyl]-3-oxo-N-(2-fluorophenyl)pyrido[1,2-a]benzimidazole-4-carboxamide], the results for the minimal effective dose in assay [1] (setting [6]) and in assay [1] (setting [5]) were no more than 10 mg/kg and greater than 10 mg/kg, respectively. Also, the ED50 in assay [2] (mouse) was no more than 30 mg/kg; in assay [4] (mouse), 3 mg/kg.

`COCCN1C2=C(C(=O)Nc3ccccc3F)C(=O)CCN2c2cccc(OC)c21` [Compound 96]: the minimal effective dose in assay [1] (setting [5]) was greater than 10 mg/kg. Further, the IC50 in assay [3] worked out at 1.8 nM.

Turning to `CCOCN1C2=C(C(=O)Nc3ccc(OC(C)C)cc3F)C(=O)CCN2c2ccc(F)cc21` [Compound 95], the minimal effective dose in assay [1] (setting [5]) is no more than 3 mg/kg. Moreover, the IC50 in assay [3] turned out to be 2.5 nM.

On to `C[S+]([O-])CCN1C2=C(C(=O)Nc3ccccc3F)C(=O)CCN2c2ccc(F)cc21` (stereo not shown) [Compound 183, 7-Fluoro-1,2-dihydro-5-[2-(methylsulfoxy)ethyl]-3-oxo-N-(2-fluorophenyl)pyrido[1,2-a]benzimidazole-4-carboxamide], for which the minimal effective dose in assay [1] (setting [7]) was 10 mg/kg. Further, the ED50 was roughly 10 mg/kg in assay [2] (setting [8]) and greater than 1 mg/kg in assay [4] (setting [8]).

Consider `CC(=O)OCCN1C2=C(C(=O)Nc3ccccc3F)C(=O)CCN2c2ccc(F)cc21` [Compound 119, 7-Fluoro-1,2-dihydro-5-(2-acetoxyethyl)-3-oxo-N-(2-fluorophenyl)pyrido[1,2-a]benzimidazole-4-carboxamide], for which the minimal effective dose in assay [1] (setting [5]) was found to be 3 mg/kg. Moreover, the ED50 was no more than 3 mg/kg in assay [2] (mouse) and less than 1 mg/kg in assay [4] (mouse).

For `CCOCN1C2=C(C(=O)Nc3ccc(O)cc3F)C(=O)CCN2c2ccc(F)cc21` [Compound 99, 7-Fluoro-1,2-dihydro-5·ethoxymethyl·3-oxo-N-(2-fluoro-4-hydroxyphenyl)pyrido[1,2-a]benzimidazale-4-carboxamide], the minimal effective dose in assay [1] (setting [6]) was no more than 1 mg/kg; in assay [1] (setting [5]), 1 to 3 mg/kg. For the same molecule, the ED50 in assay [2] (mouse) was in the range of 0.3 to 3 mg/kg. The IC50 in assay [3] was found to be 1.38 nM.
